Earlier results as cited in US20100047195A1, “LIP BALM AND METHOD OF TREATING LIP CONDITIONS” (priority 2007, published 2010).

Settings: oral isotretinoin; estimated

patients treated who develop cheilitis (cracking, soreness and other inflammation of the lips): over 90%
SMILES: CC1=C(/C=C/C(C)=C/C=C/C(C)=C\C(=O)O)C(C)(C)CCC1 [isotretinoin, 13-cis-retinoic acid]
